According to PubChem BioAssay (NCI):
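A five-concentration, 48-hour dose response in 96-well plates underlies each endpoint, interpolated linearly between surrounding concentrations. GI50: concentration for 50% inhibition of growth. TGI denotes the concentration required for complete inhibition of growth.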

Assays:
Experiment in all cases: inhibition of tumour cell growth, NCI panel, 48 h
[1] = system: SK-MEL-5 melanoma
[2] = system: HOP-62 NSCLC
[3] = system: MOLT-4 leukemia
[4] = system: DU-145 prostate
[5] = system: NCI-H23 lung
[6] = system: NCI-H522 lung
[7] = system: T-47D breast
[8] = system: HCT-15 colon
[9] = system: KM12 colon
[10] = system: CCRF-CEM leukemia
[11] = system: HS 578T breast
[12] = system: BT-549 breast
[13] = system: RXF 393 renal
[14] = system: ACHN renal
[15] = system: UACC-62 melanoma
[16] = system: PC-3 prostate
[17] = system: SF-295 CNS
[18] = system: NCI/ADR-RES ovarian
[19] = system: HOP-92 NSCLC
[20] = system: HCT-116 colon
[21] = system: HCC-2998 colon
[22] = system: OVCAR-5 ovarian
[23] = system: OVCAR-4 ovarian
[24] = system: MCF7 breast
[25] = system: RPMI-8226 leukemia
[26] = system: HL-60(TB) leukemia
[27] = system: K-562 leukemia
[28] = system: SK-OV-3 ovarian
[29] = system: HT29 colon
[30] = system: SK-MEL-2 melanoma
[31] = system: A498 renal
[32] = system: SNB-75 CNS
[33] = system: UACC-257 melanoma
[34] = system: MDA-MB-231 breast
[35] = system: OVCAR-8 ovarian
[36] = system: NCI-H460 lung
[37] = system: SNB-19 CNS
[38] = system: MALME-3M melanoma
[39] = system: COLO 205 colon
[40] = system: NCI-H226 lung
[41] = system: UO-31 renal
[42] = system: MDA-MB-468 breast
[43] = system: OVCAR-3 ovarian
[44] = system: U251 CNS
[45] = system: SF-268 CNS
[46] = system: IGROV1 ovarian
[47] = system: LOX IMVI melanoma
[48] = system: CAKI-1 renal
[49] = system: SW-620 colon
[50] = system: EKVX NSCLC
[51] = system: SF-539 CNS
[52] = system: MDA-MB-435
[53] = system: TK-10 renal
[54] = system: 786-0 renal
[55] = system: SK-MEL-28 melanoma
[56] = system: M14 melanoma
[57] = system: SN12C renal
[58] = system: SR leukemia
[59] = system: A549 NSCLC

Which results are given for `CCOc1ccc(-c2cc(-c3cc(C(C)C)c(O)cc3C)nn2-c2ccc(S(N)(=O)=O)cc2)cc1`?
GI50 [1]: 5.3 µM; TGI [1]: 17.8 µM; GI50 [2]: 10.4 µM; TGI [2]: 23.4 µM; GI50 [3]: 4.02 µM; TGI [3]: 17.6 µM; GI50 [4]: 7.07 µM; TGI [4]: 19.9 µM; GI50 [5]: 6.86 µM; TGI [5]: 20.5 µM; GI50 [6]: 2.75 µM; TGI [6]: 11 µM; GI50 [7]: 3.71 µM; TGI [7]: 17 µM; GI50 [8]: 3.61 µM; TGI [8]: 14.4 µM; GI50 [9]: 3.47 µM; TGI [9]: 13.4 µM; GI50 [10]: 2.86 µM; TGI [10]: 13.8 µM; GI50 [11]: 5.8 µM; TGI [11]: 25.9 µM; GI50 [12]: 2.93 µM; TGI [12]: 11.4 µM; GI50 [13]: 4.45 µM; TGI [13]: 17.2 µM; GI50 [14]: 10.5 µM; TGI [14]: 22.3 µM; GI50 [15]: 7.25 µM; TGI [15]: 20.4 µM; GI50 [16]: 5.47 µM; TGI [16]: 19.6 µM; GI50 [17]: 9.37 µM; TGI [17]: 21.3 µM; GI50 [18]: 3.15 µM; TGI [18]: 12.2 µM; GI50 [19]: 2.82 µM; TGI [19]: 13 µM; GI50 [20]: 5.46 µM; TGI [20]: 18.2 µM; GI50 [21]: 3.87 µM; TGI [21]: 12.7 µM; GI50 [22]: 15.7 µM; TGI [22]: 29.2 µM; GI50 [23]: 7.29 µM; TGI [23]: 21 µM; GI50 [24]: 4.88 µM; TGI [24]: 19.2 µM; GI50 [25]: 4.29 µM; TGI [25]: 22.2 µM; GI50 [26]: 4.81 µM; TGI [26]: 37.3 µM; GI50 [27]: 3.38 µM; TGI [27]: > 100 µM; GI50 [28]: 10.7 µM; TGI [28]: 22.7 µM; GI50 [29]: 15.4 µM; TGI [29]: 29.5 µM; GI50 [30]: 7.28 µM; TGI [30]: 20.8 µM; GI50 [31]: 13.4 µM; TGI [31]: 26.4 µM; GI50 [32]: 2.48 µM; TGI [32]: 13 µM; GI50 [33]: 10.4 µM; TGI [33]: 22.5 µM; GI50 [34]: 6.78 µM; TGI [34]: 20.3 µM; GI50 [35]: 7.24 µM; TGI [35]: 21.6 µM; GI50 [36]: 5.21 µM; TGI [36]: 18.1 µM; GI50 [37]: 12.3 µM; TGI [37]: 24.8 µM; GI50 [38]: 11 µM; TGI [38]: 23.4 µM; GI50 [39]: 17.1 µM; TGI [39]: 31.7 µM; GI50 [40]: 15.7 µM; TGI [40]: 37 µM; GI50 [41]: 5.46 µM; TGI [41]: 18.3 µM; GI50 [42]: 2.39 µM; TGI [42]: 6.76 µM; GI50 [43]: 4.55 µM; TGI [43]: 15.3 µM; GI50 [44]: 5.29 µM; TGI [44]: 18.6 µM; GI50 [45]: 7.22 µM; TGI [45]: 21.4 µM; GI50 [46]: 12.1 µM; TGI [46]: 24.9 µM; GI50 [47]: 5.65 µM; TGI [47]: 18.3 µM; GI50 [48]: 4.92 µM; TGI [48]: 18 µM; GI50 [49]: 5.94 µM; TGI [49]: 20 µM; GI50 [50]: 3.96 µM; TGI [50]: 15.2 µM; GI50 [51]: 5.51 µM; TGI [51]: 17.7 µM; GI50 [52]: 1.91 µM; TGI [52]: 4.44 µM; GI50 [53]: 15.6 µM; TGI [53]: 29.1 µM; GI50 [54]: 11.2 µM; TGI [54]: 23.3 µM; GI50 [55]: 11.7 µM; TGI [55]: 24 µM; GI50 [56]: 9.86 µM; TGI [56]: 22.4 µM; GI50 [57]: 6.66 µM; TGI [57]: 20.1 µM; GI50 [58]: 1.8 µM; TGI [58]: 43.8 µM; GI50 [59]: 4.62 µM; TGI [59]: 19.2 µM
